According to US7745437B2, “Compounds and compositions as protein kinase inhibitors” (IRM LLC, priority 2004, dated 2010):

Experiments:
Assay in all cases: Upstate KinaseProfiler radio-enzymatic filter binding assay
Assay type in all cases: biochemical
JNK2α2 = target: T1, JNK2α2 (Homo sapiens, UniProt P45984); settings: at a concentration of 10 μM; read-out: percentage inhibition of JNK2α2
T1 construct: purchased Upstate
Protocol: (§1) Compounds of the invention are assessed for their ability to inhibit individual members of the kinase panel. The compounds are tested in duplicates at a final concentration of 10 μM following this generic protocol. Note that the kinase buffer composition and the substrates vary for the different kinases included in the “Upstate KinaseProfiler™” panel. Kinase buffer (2.5 μL, 10×—containing MnCl2 when required), active kinase (0.001-0.01 Units; 2.5 μL), specific or Poly(Glu4-Tyr) peptide (5-500 μM or 0.01 mg/ml) in kinase buffer and kinase buffer (50 μM; 5 μL) are mixed in an eppendorf on ice, A Mg/ATP mix (10 μL; 67.5 (or 33.75) mM MgCl2, 450 (or 225) μM ATP and 1 μCi/μl [γ-^32P]-ATP (3000 Ci/mmol)) is added and the reaction is incubated at about 30° C. for about 10 minutes. The reaction mixture is spotted (20 μL) onto a 2 cm×2 cm P81 (phosphocellulose, for positively charged peptide substrates) or Whatman No. 1 (for Poly (Glu4-Tyr) peptide substrate) paper square. The assay squares are washed 4 times, for 5 minutes each, with 0.75% phosphoric acid and washed once with acetone for 5 minutes. The assay squares are transferred to a scintillation vial, 5 ml scintillation cocktail are added and ^32P incorporation (cpm) to the peptide substrate is quantified with a Beckman scintillation counter. Percentage inhibition is calculated for each reaction.

Tie2 = target: T2, Tie2 (Homo sapiens, UniProt Q02763); settings: at a concentration of 10 μM; read-out: percentage inhibition of Tie2
T2 construct: purchased Upstate
Protocol: as §1

TrkB = target: T3, TrkB (Homo sapiens, UniProt Q16620); settings: at a concentration of 10 μM; read-out: percentage inhibition of TrkB
T3 construct: purchased Upstate
Protocol: as §1

SAPK2β = target: T4, SAPK2β (Homo sapiens, UniProt Q15759); settings: at a concentration of 10 μM; read-out: percentage inhibition of SAPK2β
T4 construct: purchased Upstate
Protocol: as §1

c-RAF = target: T5, c-RAF (Homo sapiens, UniProt P04049); settings: at a concentration of 10 μM; read-out: percentage inhibition of c-RAF
T5 construct: purchased Upstate
Protocol: as §1

PDGFRα = target: T6, PDGFRα (Homo sapiens, UniProt P16234); settings: at a concentration of 10 μM; read-out: percentage inhibition of PDGFRα
T6 construct: purchased Upstate
Protocol: as §1

MKK6 = target: T7, MKK6 (Homo sapiens, UniProt P52564); settings: at a concentration of 10 μM; read-out: percentage inhibition of MKK6
T7 construct: purchased Upstate
T7 sequence (P52564 1-334): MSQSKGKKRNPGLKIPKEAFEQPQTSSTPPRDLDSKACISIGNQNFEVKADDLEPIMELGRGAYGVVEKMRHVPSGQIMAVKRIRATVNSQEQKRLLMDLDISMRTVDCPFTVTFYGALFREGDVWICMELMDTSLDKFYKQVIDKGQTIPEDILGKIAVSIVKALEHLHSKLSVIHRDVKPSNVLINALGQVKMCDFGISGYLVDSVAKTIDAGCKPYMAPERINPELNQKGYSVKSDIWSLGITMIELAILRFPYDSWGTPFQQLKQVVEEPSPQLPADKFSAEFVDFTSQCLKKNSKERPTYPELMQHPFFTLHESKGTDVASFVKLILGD
Protocol: as §1

wild-type Abl = target: T8, wild-type Abl (Homo sapiens, UniProt P00519); settings: at a concentration of 10 μM; read-out: percentage inhibition of wild-type Abl
T8 construct: purchased Upstate
Protocol: as §1

c-SRC = target: T9, c-SRC (Homo sapiens, UniProt P12931); settings: at a concentration of 10 μM; read-out: percentage inhibition of c-SRC
T9 construct: purchased Upstate
Protocol: as §1

lck = target: T10, lck (Homo sapiens, UniProt P06239); settings: at a concentration of 10 μM; read-out: percentage inhibition of lck
T10 construct: purchased Upstate
Protocol: as §1

SAPK2α = target: T11, SAPK2α (Homo sapiens, UniProt Q16539); settings: at a concentration of 10 μM; read-out: percentage inhibition of SAPK2α
T11 construct: purchased Upstate
Protocol: as §1

T4 sequence (Q15759 whole entry): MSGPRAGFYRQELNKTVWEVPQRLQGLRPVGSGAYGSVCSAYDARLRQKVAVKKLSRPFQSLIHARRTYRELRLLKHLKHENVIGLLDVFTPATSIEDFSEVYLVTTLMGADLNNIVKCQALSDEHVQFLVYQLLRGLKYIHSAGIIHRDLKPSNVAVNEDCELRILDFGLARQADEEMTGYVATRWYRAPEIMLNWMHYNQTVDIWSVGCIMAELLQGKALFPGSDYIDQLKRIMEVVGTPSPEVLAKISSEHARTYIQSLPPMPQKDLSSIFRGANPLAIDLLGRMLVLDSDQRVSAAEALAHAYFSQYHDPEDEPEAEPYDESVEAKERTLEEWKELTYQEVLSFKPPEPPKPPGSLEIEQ
T3 sequence (Q16620 32-822): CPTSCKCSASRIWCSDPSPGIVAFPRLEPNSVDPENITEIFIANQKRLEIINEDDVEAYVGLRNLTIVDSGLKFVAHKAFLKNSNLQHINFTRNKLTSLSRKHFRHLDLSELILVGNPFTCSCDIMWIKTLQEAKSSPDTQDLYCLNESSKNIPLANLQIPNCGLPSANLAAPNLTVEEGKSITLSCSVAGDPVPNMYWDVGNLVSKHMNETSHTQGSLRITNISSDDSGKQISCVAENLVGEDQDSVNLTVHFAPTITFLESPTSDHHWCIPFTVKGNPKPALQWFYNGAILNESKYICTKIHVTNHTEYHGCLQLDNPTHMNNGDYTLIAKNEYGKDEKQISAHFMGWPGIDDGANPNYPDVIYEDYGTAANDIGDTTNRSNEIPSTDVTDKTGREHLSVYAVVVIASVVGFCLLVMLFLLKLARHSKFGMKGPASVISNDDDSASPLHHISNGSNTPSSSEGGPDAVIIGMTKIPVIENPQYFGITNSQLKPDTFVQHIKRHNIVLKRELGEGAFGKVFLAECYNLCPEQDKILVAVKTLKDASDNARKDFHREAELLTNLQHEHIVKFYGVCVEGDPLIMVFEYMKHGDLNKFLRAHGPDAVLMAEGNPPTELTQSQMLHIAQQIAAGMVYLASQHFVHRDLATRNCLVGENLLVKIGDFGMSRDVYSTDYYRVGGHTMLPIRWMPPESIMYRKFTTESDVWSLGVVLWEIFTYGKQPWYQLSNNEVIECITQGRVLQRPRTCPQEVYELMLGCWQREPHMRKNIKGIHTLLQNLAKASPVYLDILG
T2 sequence (Q02763 23-1124): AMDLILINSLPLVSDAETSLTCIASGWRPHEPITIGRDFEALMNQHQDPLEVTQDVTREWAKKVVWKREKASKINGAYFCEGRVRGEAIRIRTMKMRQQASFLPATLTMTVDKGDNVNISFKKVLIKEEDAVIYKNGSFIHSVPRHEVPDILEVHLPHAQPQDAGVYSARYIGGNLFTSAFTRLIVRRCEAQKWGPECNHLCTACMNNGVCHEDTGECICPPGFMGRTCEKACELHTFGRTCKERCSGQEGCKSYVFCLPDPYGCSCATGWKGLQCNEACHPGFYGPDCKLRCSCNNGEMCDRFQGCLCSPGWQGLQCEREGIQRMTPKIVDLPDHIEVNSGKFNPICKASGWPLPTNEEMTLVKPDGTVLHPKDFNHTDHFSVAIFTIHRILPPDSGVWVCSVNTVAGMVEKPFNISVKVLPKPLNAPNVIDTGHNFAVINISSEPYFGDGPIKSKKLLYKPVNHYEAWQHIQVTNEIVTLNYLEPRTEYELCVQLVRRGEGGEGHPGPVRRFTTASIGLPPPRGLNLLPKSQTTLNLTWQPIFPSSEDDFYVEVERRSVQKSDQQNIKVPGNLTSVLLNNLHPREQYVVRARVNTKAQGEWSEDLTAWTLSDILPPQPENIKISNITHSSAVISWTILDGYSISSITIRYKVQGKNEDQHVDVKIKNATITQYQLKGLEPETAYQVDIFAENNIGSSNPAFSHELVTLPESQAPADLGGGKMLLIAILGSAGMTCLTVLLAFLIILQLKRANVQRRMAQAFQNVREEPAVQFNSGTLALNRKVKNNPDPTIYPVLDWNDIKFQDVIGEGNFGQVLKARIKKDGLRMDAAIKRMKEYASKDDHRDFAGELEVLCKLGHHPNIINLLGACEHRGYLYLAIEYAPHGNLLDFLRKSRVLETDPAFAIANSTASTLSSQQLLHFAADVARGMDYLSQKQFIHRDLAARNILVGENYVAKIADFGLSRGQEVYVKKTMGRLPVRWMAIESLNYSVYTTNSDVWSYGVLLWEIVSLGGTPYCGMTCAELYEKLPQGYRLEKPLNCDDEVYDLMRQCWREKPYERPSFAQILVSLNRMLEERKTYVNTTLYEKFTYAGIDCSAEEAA
T8 sequence (P00519 whole entry, species assumed): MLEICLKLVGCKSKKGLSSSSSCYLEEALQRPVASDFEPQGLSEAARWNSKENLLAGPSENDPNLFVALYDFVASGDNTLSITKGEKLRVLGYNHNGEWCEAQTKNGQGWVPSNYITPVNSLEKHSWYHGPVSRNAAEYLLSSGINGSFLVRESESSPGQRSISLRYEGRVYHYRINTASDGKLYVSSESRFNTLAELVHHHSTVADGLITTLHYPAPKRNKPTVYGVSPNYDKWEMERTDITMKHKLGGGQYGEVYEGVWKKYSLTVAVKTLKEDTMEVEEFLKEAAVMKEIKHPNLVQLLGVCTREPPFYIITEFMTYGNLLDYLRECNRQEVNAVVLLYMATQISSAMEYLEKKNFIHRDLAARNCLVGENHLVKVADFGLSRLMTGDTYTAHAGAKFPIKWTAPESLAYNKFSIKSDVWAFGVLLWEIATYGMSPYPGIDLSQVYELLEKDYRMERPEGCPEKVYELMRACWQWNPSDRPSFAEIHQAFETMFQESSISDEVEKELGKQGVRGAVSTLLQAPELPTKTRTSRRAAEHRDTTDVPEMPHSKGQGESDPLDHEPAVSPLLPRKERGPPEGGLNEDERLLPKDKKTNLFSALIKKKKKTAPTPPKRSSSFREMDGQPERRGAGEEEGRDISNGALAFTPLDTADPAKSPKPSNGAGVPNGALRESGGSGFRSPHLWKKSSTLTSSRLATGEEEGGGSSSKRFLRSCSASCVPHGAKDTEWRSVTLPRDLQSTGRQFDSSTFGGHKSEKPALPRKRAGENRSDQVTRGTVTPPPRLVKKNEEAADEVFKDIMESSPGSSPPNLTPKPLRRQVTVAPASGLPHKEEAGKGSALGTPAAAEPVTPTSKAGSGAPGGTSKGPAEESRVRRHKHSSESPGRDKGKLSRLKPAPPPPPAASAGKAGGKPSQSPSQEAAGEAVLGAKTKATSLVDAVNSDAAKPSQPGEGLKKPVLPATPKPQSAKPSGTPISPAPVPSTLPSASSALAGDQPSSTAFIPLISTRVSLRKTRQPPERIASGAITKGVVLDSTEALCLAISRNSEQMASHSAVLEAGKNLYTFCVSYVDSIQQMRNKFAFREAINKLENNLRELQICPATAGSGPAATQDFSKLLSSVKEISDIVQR
T9 sequence (P12931 whole entry): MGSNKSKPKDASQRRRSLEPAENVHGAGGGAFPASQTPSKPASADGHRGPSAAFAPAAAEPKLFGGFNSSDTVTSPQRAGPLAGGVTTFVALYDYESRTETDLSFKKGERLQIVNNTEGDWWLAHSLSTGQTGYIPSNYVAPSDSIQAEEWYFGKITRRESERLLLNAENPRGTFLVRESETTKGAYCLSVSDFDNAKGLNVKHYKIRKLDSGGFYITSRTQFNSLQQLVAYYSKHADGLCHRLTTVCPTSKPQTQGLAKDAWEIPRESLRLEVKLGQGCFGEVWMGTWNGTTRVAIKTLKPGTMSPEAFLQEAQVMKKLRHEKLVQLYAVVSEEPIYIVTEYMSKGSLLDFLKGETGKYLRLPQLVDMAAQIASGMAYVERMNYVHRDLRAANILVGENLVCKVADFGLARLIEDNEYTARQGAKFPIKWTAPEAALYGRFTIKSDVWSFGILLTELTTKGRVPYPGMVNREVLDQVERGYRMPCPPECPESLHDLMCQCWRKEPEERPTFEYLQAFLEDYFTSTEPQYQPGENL
T6 sequence (P16234 24-1089): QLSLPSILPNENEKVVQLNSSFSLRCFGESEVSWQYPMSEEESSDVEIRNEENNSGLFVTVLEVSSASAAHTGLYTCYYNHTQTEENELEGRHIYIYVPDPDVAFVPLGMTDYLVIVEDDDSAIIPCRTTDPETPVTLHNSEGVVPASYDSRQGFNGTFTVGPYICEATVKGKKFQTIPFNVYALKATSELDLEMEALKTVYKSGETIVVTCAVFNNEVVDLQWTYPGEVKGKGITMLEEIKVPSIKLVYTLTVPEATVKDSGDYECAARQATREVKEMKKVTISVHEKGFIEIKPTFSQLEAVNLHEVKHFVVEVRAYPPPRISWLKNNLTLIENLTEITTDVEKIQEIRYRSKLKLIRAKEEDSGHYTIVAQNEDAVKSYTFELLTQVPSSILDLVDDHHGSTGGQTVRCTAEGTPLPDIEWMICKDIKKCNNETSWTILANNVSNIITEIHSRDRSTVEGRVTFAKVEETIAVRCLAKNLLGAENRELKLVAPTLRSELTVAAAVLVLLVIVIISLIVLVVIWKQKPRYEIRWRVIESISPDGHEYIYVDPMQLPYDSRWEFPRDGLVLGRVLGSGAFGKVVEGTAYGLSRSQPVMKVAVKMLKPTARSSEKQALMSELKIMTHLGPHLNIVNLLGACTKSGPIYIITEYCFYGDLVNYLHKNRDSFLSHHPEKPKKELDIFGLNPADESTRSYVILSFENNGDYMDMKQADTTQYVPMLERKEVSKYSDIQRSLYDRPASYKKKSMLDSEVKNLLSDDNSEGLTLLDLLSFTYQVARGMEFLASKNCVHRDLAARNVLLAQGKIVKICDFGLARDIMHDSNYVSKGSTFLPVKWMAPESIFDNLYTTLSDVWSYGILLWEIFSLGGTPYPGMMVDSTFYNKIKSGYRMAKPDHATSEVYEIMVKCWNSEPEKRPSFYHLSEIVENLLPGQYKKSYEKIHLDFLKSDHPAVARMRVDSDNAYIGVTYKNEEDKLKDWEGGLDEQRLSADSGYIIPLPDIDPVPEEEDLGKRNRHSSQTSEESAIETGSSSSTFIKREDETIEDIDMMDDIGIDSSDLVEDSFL

Cc1ccc(NC(=O)c2cccc(C(F)(F)F)c2)cc1Nc1nccn1-c1cc(NCCN2CCOCC2)ncn1 [Compound 3, N-(4-Methyl-3-{1-[6-(2-morpholin-4-yl-ethylamino)-pyrimidin-4-yl]-1H-imidazol-2-ylamino}-phenyl)-3-trifluoromethyl-benzamide]
inhibition at 10 µM (JNK2α2): 97%
inhibition at 10 µM (Tie2): 99%
inhibition at 10 µM (TrkB): 97%
inhibition at 10 µM (SAPK2β): 100%
inhibition at 10 µM (c-RAF): 100%
inhibition at 10 µM (PDGFRα): 97%
inhibition at 10 µM (MKK6): 100%
inhibition at 10 µM (wild-type Abl): 97%
inhibition at 10 µM (c-SRC): 99%
inhibition at 10 µM (lck): 100%
inhibition at 10 µM (SAPK2α): 100%
